Values joined by “and” are separate entries in the source; they are usually repeats but may differ in a detail not shown here. Identical values can stand only once. Toxic doses and inconclusive results are not listed.
Tested on: CD2F1 mice, L1210 leukemia ip, survival T/C
Experiment: NCI In Vivo Anticancer Drug Screen. Data for tumor model L1210 Leukemia (intraperitoneal) in CD2F1 (CDF1) mice
Details: higher = longer survival
Outline: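 Antitumor effect is scored in animals hosting a serially transplanted tumor. Values compare compound-dosed animals against vehicle-only controls as a simple quotient.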

[1] = endpoint: mean survival time, dose: 100.0 mg/kg/injection, schedule: Q01DX001 (ip), vehicle: saline
[2] = endpoint: mean survival time, dose: 200.0 mg/kg/injection, schedule: Q01DX001 (ip), vehicle: saline
[3] = endpoint: mean survival time, dose: 400.0 mg/kg/injection, schedule: Q01DX001 (ip), vehicle: saline
[4] = endpoint: mean survival time, dose: 50.0 mg/kg/injection, schedule: Q01DX009 (ip), vehicle: saline
[5] = endpoint: mean survival time, dose: 100.0 mg/kg/injection, schedule: Q01DX009 (ip), vehicle: saline
[6] = endpoint: mean survival time, dose: 100.0 mg/kg/injection, schedule: Q01DX009 (ip), vehicle: saline with Tween-80
[7] = endpoint: mean survival time, dose: 100.0 mg/kg/injection, schedule: Q04DX003 (ip), vehicle: saline with Tween-80
[8] = endpoint: mean survival time, dose: 200.0 mg/kg/injection, schedule: Q01DX009 (ip), vehicle: saline with Tween-80
[9] = endpoint: mean survival time, dose: 200.0 mg/kg/injection, schedule: Q04DX003 (ip), vehicle: saline with Tween-80
[10] = endpoint: mean survival time, dose: 400.0 mg/kg/injection, schedule: Q01DX009 (ip), vehicle: saline with Tween-80
[11] = endpoint: mean survival time, dose: 400.0 mg/kg/injection, schedule: Q04DX003 (ip), vehicle: saline with Tween-80
[12] = endpoint: mean survival time, dose: 50.0 mg/kg/injection, schedule: Q01DX009 (ip), vehicle: saline with Tween-80
[13] = endpoint: mean survival time, dose: 75.0 mg/kg/injection, schedule: Q01DX001 (ip), vehicle: saline
[14] = endpoint: mean survival time, dose: 150.0 mg/kg/injection, schedule: Q01DX001 (ip), vehicle: saline
[15] = endpoint: mean survival time, dose: 300.0 mg/kg/injection, schedule: Q01DX001 (ip), vehicle: saline
[16] = endpoint: mean survival time, dose: 25.0 mg/kg/injection, schedule: Q01DX009 (ip), vehicle: saline
[17] = endpoint: mean survival time, dose: 100.0 mg/kg/injection, schedule: Q01DX001 (ip), vehicle: saline with Tween-80
[18] = endpoint: mean survival time, dose: 200.0 mg/kg/injection, schedule: Q01DX001 (ip), vehicle: saline with Tween-80
[19] = endpoint: mean survival time, dose: 400.0 mg/kg/injection, schedule: Q01DX001 (ip), vehicle: saline with Tween-80

CCC[CH2][Sn]1([CH2]CCC)[O]OC(c2ccc(C(=O)OCC)cc2)[O]1 (stereo not drawn)
T/C (endpoint: mean survival time, dose: 1.56 mg/kg/injection, schedule: Q04DX002 (ip), vehicle: other): 101 % of control | T/C (endpoint: mean survival time, dose: 3.13 mg/kg/injection, schedule: Q04DX002 (ip), vehicle: other): 116 % of control

BrC/C(=N\N1CCCCC1)c1ccc(Br)cc1
T/C (endpoint: mean survival time, dose: 25.0 mg/kg/injection, schedule: Q01DX009 (ip), vehicle: saline sonified): 100 % of control | T/C (endpoint: mean survival time, dose: 50.0 mg/kg/injection, schedule: Q01DX009 (ip), vehicle: saline sonified): 96 % of control | T/C [1]: 94 % of control | T/C (endpoint: mean survival time, dose: 100.0 mg/kg/injection, schedule: Q01DX009 (ip), vehicle: saline sonified): 96 % of control | T/C [2]: 102 % of control | T/C [3]: 95 % of control

O=C(O)C1CCCN1C(=O)C(CSC(c1ccccc1)(c1ccccc1)c1ccccc1)NC(c1ccccc1)(c1ccccc1)c1ccccc1 (stereo not drawn)
T/C [4]: 101 % of control | T/C [5]: 97 % of control | T/C (endpoint: mean survival time, dose: 200.0 mg/kg/injection, schedule: Q01DX009 (ip), vehicle: saline): 98 % of control | T/C (endpoint: mean survival time, dose: 400.0 mg/kg/injection, schedule: Q01DX009 (ip), vehicle: saline): 97 % of control

CC1CCCC(C)N1c1ccc(NC(=O)c2ccc(C(=O)Nc3ccc(N4C(C)CCCC4C)cc3)cc2)cc1 (stereo not drawn)
T/C [1]: 86 % of control

Cc1ccc(NC(=O)c2ccccc2Cl)cc1
T/C [6]: 95 % of control | T/C [7]: 95 % of control | T/C [8]: 92 % of control | T/C [9]: 96 % of control | T/C [10]: 94 % of control | T/C [11]: 93 % of control

C=CCNc1nc2c(s1)CCc1cc(OC)c(OC)cc1-2
T/C (endpoint: mean survival time, dose: 12.5 mg/kg/injection, schedule: Q01DX009 (ip), vehicle: saline with Tween-80): 92 % of control and 97 % of control | T/C (endpoint: mean survival time, dose: 25.0 mg/kg/injection, schedule: Q01DX009 (ip), vehicle: saline with Tween-80): 95 % of control and 101 % of control | T/C [12]: 97 % of control and 98 % of control | T/C [6]: 97 % of control and 101 % of control | T/C [8]: 97 % of control and 101 % of control | T/C [10]: 106 % of control

CC(C)NC(=O)NC(C)C
T/C [1]: 107 % of control | T/C [2]: 102 % of control | T/C [3]: 100 % of control

CC(=O)CCN1Cc2cc3c(cc2C(O)C1)OCO3 (stereo not drawn)
T/C [13]: 104 % of control | T/C [14]: 97 % of control | T/C [15]: 95 % of control

C=C1C(=O)O[C@H]2C[C@@]3(C)[C@H](O)CCC(=C)[C@@H]3[C@@H](OC(C)=O)[C@H]12
T/C [13]: 102 % of control | T/C [14]: 106 % of control | T/C [15]: 103 % of control

C=C1C(=O)OCC1(C(=O)OCC)C(=O)OCC
T/C (endpoint: mean survival time, dose: 5.0 mg/kg/injection, schedule: Q01DX001 (ip), vehicle: saline): 100 % of control | T/C (endpoint: mean survival time, dose: 10.0 mg/kg/injection, schedule: Q01DX001 (ip), vehicle: saline): 100 % of control | T/C (endpoint: mean survival time, dose: 20.0 mg/kg/injection, schedule: Q01DX001 (ip), vehicle: saline): 100 % of control | T/C (endpoint: mean survival time, dose: 40.0 mg/kg/injection, schedule: Q01DX001 (ip), vehicle: saline): 108 % of control

C(CCSC1=NCCN1)CCSC1=NCCN1
T/C [16]: 97 % of control | T/C [4]: 103 % of control | T/C [5]: 100 % of control

COc1ccc(C2C3CN(C4CCCCC4)C(=O)C3(O)NN2C)cc1 (stereo not drawn)
T/C [17]: 91 % of control | T/C [18]: 88 % of control | T/C [19]: 91 % of control

CC1=NN(c2ccccc2)C(=O)C1N=Nc1ccc([As](=O)(O)O)c(O)c1 (stereo not drawn)
T/C [6]: 103 % of control | T/C [7]: 106 % of control | T/C [8]: 97 % of control | T/C [9]: 100 % of control | T/C [11]: 101 % of control

O=[N+]([O-])c1cc(C(F)(F)F)cc([N+](=O)[O-])c1Cl
T/C (endpoint: mean survival time, dose: 1.56 mg/kg/injection, schedule: Q04DX003 (ip), vehicle: Klucel (hydroxypropylcellulose) (HPC)): 98 % of control and 101 % of control | T/C (endpoint: mean survival time, dose: 3.12 mg/kg/injection, schedule: Q04DX003 (ip), vehicle: Klucel (hydroxypropylcellulose) (HPC)): 98 % of control and 102 % of control | T/C (endpoint: mean survival time, dose: 6.25 mg/kg/injection, schedule: Q04DX003 (ip), vehicle: Klucel (hydroxypropylcellulose) (HPC)): 95 % of control and 98 % of control | T/C (endpoint: mean survival time, dose: 12.5 mg/kg/injection, schedule: Q04DX003 (ip), vehicle: Klucel (hydroxypropylcellulose) (HPC)): 90 % of control and 98 % of control

COC(=O)Nc1cccc(OC(=O)N(C)C)c1
T/C [6]: 97 % of control | T/C [8]: 97 % of control | T/C [10]: 96 % of control

CCOC/C(O)=C(\C#N)c1cccc(Cl)c1
T/C (endpoint: mean survival time, dose: 25.0 mg/kg/injection, schedule: Q01DX001 (ip), vehicle: other): 105 % of control | T/C (endpoint: mean survival time, dose: 50.0 mg/kg/injection, schedule: Q01DX001 (ip), vehicle: other): 102 % of control | T/C (endpoint: mean survival time, dose: 100.0 mg/kg/injection, schedule: Q01DX001 (ip), vehicle: other): 102 % of control | T/C (endpoint: mean survival time, dose: 200.0 mg/kg/injection, schedule: Q01DX001 (ip), vehicle: other): 101 % of control

CCC(C)NC(=O)Nc1ccccc1C(F)(F)F (stereo not drawn)
T/C [17]: 106 % of control | T/C [6]: 92 % of control | T/C [18]: 95 % of control | T/C [8]: 88 % of control | T/C [19]: 89 % of control | T/C [10]: 94 % of control

CS(=O)(=O)CS(=O)(=O)OCCF
T/C (endpoint: median survival time, dose: 3.12 mg/kg/injection, schedule: Q01DX009 (ip), vehicle: saline): 112 % of control | T/C (endpoint: median survival time, dose: 3.13 mg/kg/injection, schedule: Q01DX009 (ip), vehicle: saline): 119 % of control | T/C (endpoint: median survival time, dose: 12.5 mg/kg/injection, schedule: Q01DX009 (ip), vehicle: saline): 179 % of control and 189 % of control | T/C (endpoint: median survival time, dose: 25.0 mg/kg/injection, schedule: Q01DX009 (ip), vehicle: saline): 182 % of control and 349 % of control

ClC1C(Cl)C(Cl)C(Cl)C(Cl)C1Cl (stereo not drawn)
T/C (endpoint: mean survival time, dose: 10.0 mg/kg/injection, schedule: Q01DX009 (ip), vehicle: saline with Tween-80): 104 % of control | T/C (endpoint: mean survival time, dose: 20.0 mg/kg/injection, schedule: Q01DX009 (ip), vehicle: saline with Tween-80): 105 % of control | T/C (endpoint: mean survival time, dose: 40.0 mg/kg/injection, schedule: Q01DX009 (ip), vehicle: saline with Tween-80): 100 % of control | T/C (endpoint: mean survival time, dose: 100.0 mg/kg/injection, schedule: Q01DX009 (ip), vehicle: other): 102 % of control | T/C (endpoint: mean survival time, dose: 100.0 mg/kg/injection, schedule: Q04DX003 (ip), vehicle: Klucel (hydroxypropylcellulose) (HPC)): 102 % of control | T/C (endpoint: mean survival time, dose: 200.0 mg/kg/injection, schedule: Q01DX009 (ip), vehicle: other): 96 % of control | T/C (endpoint: mean survival time, dose: 200.0 mg/kg/injection, schedule: Q04DX003 (ip), vehicle: Klucel (hydroxypropylcellulose) (HPC)): 107 % of control | T/C (endpoint: mean survival time, dose: 400.0 mg/kg/injection, schedule: Q04DX003 (ip), vehicle: Klucel (hydroxypropylcellulose) (HPC)): 102 % of control

O=C1CCCN1.O=C1CCCN1.[Br][Co][Br]
T/C (endpoint: mean survival time, dose: 37.5 mg/kg/injection, schedule: Q01DX009 (ip), vehicle: saline): 102 % of control | T/C (endpoint: mean survival time, dose: 75.0 mg/kg/injection, schedule: Q01DX009 (ip), vehicle: saline): 107 % of control

NC(=Nc1ccc(Cl)cc1)/N=C(/N)N1CCN(/C(N)=N/C(N)=Nc2ccc(Cl)cc2)CC1
T/C [12]: 104 % of control | T/C [7]: 98 % of control | T/C [9]: 98 % of control

Cc1ccc([I+]c2ccc(C)cc2)cc1
T/C (endpoint: mean survival time, dose: 0.25 mg/kg/injection, schedule: Q01DX009 (ip), vehicle: Klucel (hydroxypropylcellulose) (HPC)): 98 % of control | T/C (endpoint: mean survival time, dose: 0.5 mg/kg/injection, schedule: Q01DX009 (ip), vehicle: Klucel (hydroxypropylcellulose) (HPC)): 98 % of control | T/C (endpoint: mean survival time, dose: 1.0 mg/kg/injection, schedule: Q01DX009 (ip), vehicle: Klucel (hydroxypropylcellulose) (HPC)): 105 % of control

Cn1c(N)n[nH]c1=S
T/C [7]: 93 % of control | T/C [9]: 108 % of control | T/C [11]: 88 % of control

O=C1C2C(c3ccccc3)=C(c3ccccc3)C1[C@@]1(c3ccccc3)C(c3ccccc3)=CC(=O)[C@@H]21 (stereo partly drawn)
T/C [17]: 87 % of control | T/C [19]: 89 % of control

c1ccc2nc(-c3cc4ccccc4s3)ccc2c1
T/C [6]: 103 % of control | T/C [7]: 107 % of control | T/C [8]: 100 % of control | T/C [9]: 101 % of control | T/C [10]: 97 % of control | T/C [11]: 96 % of control

NC(=O)NC(=O)c1cccc([N+](=O)[O-])c1
T/C [6]: 104 % of control | T/C [7]: 97 % of control | T/C [8]: 97 % of control | T/C [9]: 94 % of control

CCCCCC/C=N/[N+](C)(C)C
T/C (endpoint: mean survival time, dose: 12.5 mg/kg/injection, schedule: Q01DX009 (ip), vehicle: saline): 114 % of control | T/C [16]: 101 % of control | T/C [4]: 101 % of control and 107 % of control

Clc1ccccc1CCCBr
T/C [6]: 96 % of control | T/C [7]: 92 % of control | T/C [8]: 104 % of control | T/C [9]: 97 % of control | T/C [10]: 106 % of control | T/C [11]: 88 % of control

COC1OC(COC(=O)c2ccccc2)C(OC(=O)c2ccccc2)C(OC(=O)c2ccccc2)C1OC(=O)c1ccccc1 (stereo not drawn)
T/C [7]: 95 % of control | T/C [9]: 91 % of control | T/C [11]: 87 % of control
